{"source": "patent US7919093B2", "about": "“Roles for dual endothelin-1/angiotensin II receptor (Dear) in hypertension and angiogenesis” (Trustees of Boston University, priority 2004, dated 2011)", "key": {"[1]": {"biological_target": "T1, Dahl R Dear S44P/M74T variant (Rattus norvegicus, UniProt D3ZGZ6, F4L/M74T/S44P)", "T1 construct": "expressed in transfected cells; host or cells: Cos1 cells (membranes), pcDNA expression vector", "T1 sequence (D3ZGZ6 1-127 F4L/S44P/M74T)": "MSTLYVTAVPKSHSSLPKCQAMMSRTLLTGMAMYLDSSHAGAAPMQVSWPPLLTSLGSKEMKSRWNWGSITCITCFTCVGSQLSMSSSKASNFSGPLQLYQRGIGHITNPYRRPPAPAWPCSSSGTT", "assay": "Radioligand binding to Dahl R Dear expressed in Cos1 cell membranes", "details": "for hormone binding (direct radioligand binding), in words: Dahl R Dear transiently expressed in Cos1 cells", "description": "(§1) The Dahl S and Dahl R Dear cDNAs were subcloned directionally (5′ to 3′) into the pcDNA (+) expression vector (Invitrogen, Carlsbad, Calif.) and transiently expressed in Cos1 cells (ATCC). Cos1 cells were transfected with the expression vectors via lipofectin-mediated gene transfer and cell membranes were isolated 72 hr post-transfection for hormone binding. Rat kidney membranes were prepared essentially as described (42). COS-1 cell membranes were isolated as described (36). Briefly, cells were washed twice in phosphate-buffered saline and homogenized in 10-fold ice-cold buffer (0.25 M sucrose, 1 mM EDTA, 50 μg/ml aprotinin, 10 μg/ml leupeptin, 100 μM phenylmethylsulfonyl fluoride, 25 mM Imidazol/HCl, pH 7.4). The homogenate was centrifuged at 5,000 g for 15 min and the pellet was discarded. The supernatant was then centrifuged at 27,500 g for 30 min and the resulting pellet was washed twice in ice-cold suspension buffer (5 mM MgCl2, 0.2 mM EDTA, 50 mM Hepes, pH 7.4). The final pellet was resuspended into the appropriate assay buffer and quickly frozen in liquid nitrogen. The membrane preparations were store at −80° C. until use. Protein concentrations of the membranes were determined by BCA protein assay kit (PIERCE).\n(§2) Binding of [^125I]Tyr^4-angiotensin II and [^125I]Tyr^13-endothelin-1 to COS-1 membranes was performed by a rapid filtration method (32, 50). Briefly, [^125I]Tyr^4-angiotensin II ([…]) or [^125I]Tyr^13-endothelin-1 (0.045˜1.46 nM) was incubated with membranes (100 μg) for 20 min at 37° C. in 100 μl buffer A (5 mM MgCl2, 0.2 mM EDTA, 10 mg/ml BSA, 10 mM Hepes, pH7.4). Binding reactions were terminated by the addition of 1 ml ice-cold buffer A and immediately filtered through a Whatman GF/C filter (presoaked overnight at 4° C. in 10 mg/ml BSA) and subsequently washed with 15 ml ice-cold buffer A. Specific binding was determined as the difference between the total radioactivity bound to membranes and the radioactivity bound to blanks containing 1 μM AngII or 1 μM ET-1. The dissociation constant (Kd) and maximum ligand-binding sites (Bmax) were determined using Hill plot analysis (55). Hill coefficient values (h) were calculated from the relationship ln [B/(Bmax−B)]=h ln [free Radioligand]−ln Kd. An F test (P<0.05) was used to determine whether the saturation binding curves best fitted one or two independent binding sites. The data were best fit by two affinity states determined by Scatchard plot analysis; KH and KL designate the Kd for high- and low-affinity states of the receptor, respectively (44). Most results are expressed as the mean±SE (standard error) from three to five independent experiments."}, "[2]": {"biological_target": "T2, Dahl S Dear S44/M74 variant (Rattus norvegicus, UniProt D3ZGZ6, F4L)", "T2 construct": "expressed in transfected cells; host or cells: Cos1 cells (membranes), pcDNA expression vector", "T2 sequence (D3ZGZ6 1-127 F4L)": "T1 sequence (D3ZGZ6 1-127 F4L/S44P/M74T) with P44S, T74M", "assay": "Radioligand binding to Dahl S Dear expressed in Cos1 cell membranes", "details": "for hormone binding, in words: Dahl S Dear transiently expressed in Cos1 cells; for Bmax / h (Hill coefficient): S44/M74 variant, mean ± s.e.m.", "description": "as §1, §2"}, "[3]": {"biological_target": "T2, Dahl S Dear S44/M74 variant", "assay": "West-western blot of kidney and Cos1 cell membranes (labeled ligand on protein blot)", "format": "binding", "details": "Dahl S kidney membranes (Kid-S) and Cos1-S membranes", "description": "(§3) A polyclonal rabbit antipeptide antibody raised against the synthetic peptide P51LLTSLGSKE60 (SEQ. ID. NO. 7) was utilized for western blot analysis (1). Plasma membranes (40 μg protein/lane) were subjected to 12.5% SDS-PAGE and the separated proteins electro-transferred onto PVDF membranes which were incubated with blocking buffer (0.3% Tween-20, 5% non-fat milk, 137 mM NaCl, 2.7 mM KCl, 8.1 mM Na2HPO4, and 1.5 mM KH2PO4, pH7.4) for 2 hr at room temperature, and then incubated with primary antibody (1:500) for 16 hr at 4° C. The PVDF membranes were then sequentially incubated with biotinylated goat anti-rabbit IgG followed by immunostaining with horseradish peroxidase-linked streptavidin. To confirm the interaction between Dear and ligands, we performed west-western blot analysis (62). Briefly, protein blots of kidney and COS-1 cell membranes were incubated with radioligands (0.5 μCi in 10 ml) in buffer A at 37° C. for 16 hr. PVDF membranes were then washed three times for 15 min with buffer A at 37° C. and exposed to X-ray film at −80° C. for 1-3 days."}, "[4]": {"biological_target": "T1, Dahl R Dear S44P/M74T variant", "assay": "West-western blot of kidney and Cos1 cell membranes (labeled ligand on protein blot)", "format": "binding", "details": "Dahl R kidney membranes (Kid-R) and Cos1-R membranes", "description": "as §3"}, "mouse Dear": {"biological_target": "T3, mouse Dear (Mus musculus, UniProt Q2QKR2)", "T3 construct": "The mouse receptor polypeptide contains 127 amino acids showing 78 percent homology with the rat receptor; expressed in transfected cells; host or cells: Cos-1 cells (membranes)", "T3 sequence (Q2QKR2 1-127)": "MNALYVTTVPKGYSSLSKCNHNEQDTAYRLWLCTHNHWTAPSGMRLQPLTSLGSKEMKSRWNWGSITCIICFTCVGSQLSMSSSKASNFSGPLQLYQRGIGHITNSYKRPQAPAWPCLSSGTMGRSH", "assay": "Ligand binding to mouse Dear expressed in Cos-1 cells", "details": "mouse receptor polypeptide, data not shown", "description": "Mouse Dear cDNA was obtained by RT-PCR from C57BL/6 mouse kidney PolyA^+ RNA (forward primer, 5′-[…]-3′ (SEQ. ID. NO. 13); reverse primer, 5′-[…]-3′(SEQ. ID. NO. 14)), subcloned into the PT-vector system (Clontech, Palo Alto, Calif.) and then sequenced (GenBank accession no. DQ009865). RNA blot analysis was done as described (1) using PolyA^+ RNA (3 μg), γ-^32P end labeled anti-sense mouse Dear oligonucleotide (5′-[…]-3′(SEQ. ID. NO. 15)) as probe. Receptor expression studies, ^125I-ET-1-1 and ^125I-AngII binding to membranes were done as described (2)."}, "[5]": {"details": "[125I]Tyr13-Endothelin I, S44P/M74T variant, mean ± s.e.m."}}, "note": "Numbering of substitutions follows the chain as printed.", "data": [{"molecule": "CC[C@H](C)[C@H](NC(=O)[C@H](Cc1ccc(O)c(I)c1)NC(=O)[C@@H](NC(=O)[C@H](CCCNC(=N)N)NC(=O)[C@@H](N)CC(=O)O)C(C)C)C(=O)N[C@@H](Cc1c[nH]cn1)C(=O)N1CCC[C@H]1C(=O)N[C@@H](Cc1ccccc1)C(=O)O", "note": "[[^125I]Tyr^4-Angiotensin II]", "values": [{"measurement": "hormone binding (direct radioligand binding), in words", "setting": "[1]", "value": "do not exhibit AngII binding"}, {"measurement": "Bmax", "setting": "[1]; [125I]Tyr4-Angiotensin II, S44P/M74T variant, Cos1 membranes", "value": "no binding"}, {"measurement": "hormone binding, in words", "setting": "[2]", "value": "binding both ET-1 and AngII"}, {"measurement": "Bmax", "setting": "[2]; [125I]Tyr4-Angiotensin II, Cos1 membranes", "value": "23.6 ± 0.92", "unit": "pmol/mg membrane protein"}, {"measurement": "h (Hill coefficient)", "setting": "[2]; [125I]Tyr4-Angiotensin II", "value": "2.63 ± 0.25"}, {"measurement": "binding in west-western blot analysis", "setting": "[3]", "value": "detects binding"}, {"measurement": "binding in west-western blot analysis", "setting": "[4]", "value": "binding only to Dahl S kidney membranes"}]}, {"molecule": "CC[C@H](C)[C@H](NC(=O)[C@H](CC(=O)O)NC(=O)[C@H](CC(C)C)NC(=O)[C@H](Cc1c[nH]cn1)NC(=O)[C@@H]1CSSC[C@H](N)C(=O)N[C@@H](CO)C(=O)N[C@H]2CSSC[C@H](NC(=O)[C@H](CCC(=O)O)NC(=O)[C@H](CCCCN)NC(=O)[C@H](CC(=O)O)NC(=O)[C@H](CCSC)NC(=O)[C@H](CC(C)C)NC(=O)[C@H](CO)NC(=O)[C@H](CO)NC2=O)C(=O)N[C@@H](C(C)C)C(=O)N[C@@H](Cc2ccc(O)c(I)c2)C(=O)N[C@@H](Cc2ccccc2)C(=O)N1)C(=O)N[C@H](C(=O)N[C@@H](Cc1c[nH]c2ccccc12)C(=O)O)[C@@H](C)CC", "note": "[[^125I]Tyr^13-Endothelin I]", "values": [{"measurement": "hormone binding (direct radioligand binding), in words", "setting": "[1]", "value": "exhibit normal ET-1 binding"}, {"measurement": "Bmax", "setting": "[1]; [5]", "value": "20.21 ± 1.59", "unit": "pmol/mg membrane protein"}, {"measurement": "h (Hill coefficient)", "setting": "[1]; [5]", "value": "1.45 ± 0.09"}, {"measurement": "hormone binding, in words", "setting": "[2]", "value": "binding both ET-1 and AngII"}, {"measurement": "increased affinity for ET-1, Dahl S variant compared to Dahl R variant", "setting": "[2]; KH, S44/M74 vs Dahl R variant", "value": 3, "unit": "fold"}, {"measurement": "Bmax", "setting": "[2]; [125I]Tyr13-Endothelin I", "value": "26.25 ± 1.29", "unit": "pmol/mg membrane protein"}, {"measurement": "h (Hill coefficient)", "setting": "[2]; [125I]Tyr13-Endothelin I", "value": "1.41 ± 0.12"}, {"measurement": "binding in west-western blot analysis", "setting": "[3]", "value": "reveals binding"}, {"measurement": "binding in west-western blot analysis", "setting": "[4]", "value": "reveals binding"}, {"measurement": "ligand binding, in words", "setting": "mouse Dear", "value": "binds solely ET-1"}]}]}
